Structures can show the parent of a compound that is named as a salt. Where two headings read alike, the source gives them in different places.
Key:
BCL-2 = BCL-2 (Homo sapiens (Human), UniProt P10415); assay: Protein-protein interaction assay BCL-2/Bad BH3 peptide (BCL-2 assay, TR-FRET); format: binding; conditions: read-out: BCL-2 Assay IC50 (median)
Protocol: Assay 3 Protein-Protein Interaction Assay: BCL-2/Bad BH3 Peptide (BCL-2 Assay)
The dose-dependent inhibition by the compounds described in this invention of the interaction between BCL-2 and the BH3 domain of Bad (both human) was determined using a steady state binding competition assay with time-resolved fluorescence energy transfer (TR-FRET) readout. For that purpose BCL-2 (amino acids 1-211, C-terminal fused to a hexahistidine (6×His) tag (SEQ ID 5) and a synthetic Bad BH3-derived peptide of sequence Biotin-PEG2-PEG2-[…]-Nle-[…]-amide (SEQ ID 4) served as protein receptor and tracer ligand respectively. The recombinant BCL-2 protein (expressed in E. coli) was purchased from BPS Bioscience (San Diego, Calif., USA). The Bad BH3-derived peptide can be obtained from e.g. Biosyntan (Berlin, Germany).
In the assay 11 different concentrations of each compound (0.1 nM, 0.33 nM, 1.1 nM, 3.8 nM, 13 nM, 44 nM, 0.15 μM, 0.51 μM, 1.7 μM, 5.9 μM and 20 μM) were typically measured as duplicates in the same microtiter plate. For that, 100-fold concentrated DMSO solutions were prepared by serial dilutions (1:3.4) of a 2 mM stock solution in a clear, 384-well microtiter plate (Greiner Bio-One, Frickenhausen, Germany). From there, 50 nl were transferred in a dark test plate (Greiner Bio-One, Frickenhausen, Germany). The assay was initiated by addition of 2 μL of a 2,5-fold concentrated His-BCL-2 solution (usually for a 1 nM end concentration in 5 μL reaction volume) in aqueous assay buffer [50 mM Tris/HCl pH 7, 100 mM sodium chloride (NaCl), 50 mM potassium fluoride (KF), 0.005% Tween-20, 2 mM DTT, 0.1% bovine gamma globulin (BGG)] to the compounds in the assay plate. This was followed by a 10-minute incubation step at 22° C. for pre-equilibration of the putative complex between His-BCL-2 and the compounds. After that, 3 μL of a 1.67-fold concentrated solution (in assay buffer) consisting of Bad BH3-derived peptide (1 nM end concentration) and TR-FRET detection reagents [1.67 nM anti-His-Eu cryptate and 1.67 nM streptavidin-XL665 (both from Cisbio Bioassays, Codolet, France)], were added.
The mixture was incubated in the dark for one hour at 22° C. and then overnight at 4° C. The formation of BCL-2/Bad complexes was determined by measuring the resonance energy transfer of the anti-His-Eu-cryptate antibody to the streptavidin-XL665 present in the reaction. For that purpose, the fluorescence emission at 620 nm and 665 nm after excitation at 330-350 nm was measured in a TR-FRET measuring instrument, for instance a Rubystar or a Pherastar (both from BMG Lab Technologies, Offenburg, Germany) or a Viewlux (Perkin-Elmer). The ratio of the emission at 665 nm and at 622 nm was used as indicator of the amount of BCL-2/Bad complexes present.
The resulting data (ratio) were normalized, taking 0% inhibition as the mean value of control measurements (usually 32 data points) where all reagents were included. In this case 50 nl DMSO were used instead of compounds. […] IC50 values were determined by regression analysis based on a 4 parameter equation (minimum, maximum, IC50, Hill; Y=Max+(Min−Max)/(1+(X/IC50)^Hill) using the Screener Software (Genedata).

SUDHL5 cells [1] = assay: Induction of caspase-3/7 activity in SUDHL5 cells (Assay 4); format: cell-based
Summary of the method: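 Caspase-3/7 activity measured in DLBCL lines after 3 h compound exposure at 37 °C, following overnight plating; Caspase-Glo 3/7 luminescence read after 1 h at 37 °C. Medium-only background subtracted, values normalized to mean of DMSO-treated cells.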

AMO-1 cells = assay: Antiproliferation assay AMO-1 (Assay 7); format: cell-based
Summary of the method: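 Growth inhibition is determined from ATP luminescence (CellTiter-Glo) following 72 h incubation with compound. Time-zero cells are measured the same way for baseline, and IC50s are referenced to DMSO controls.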

SUDHL5 cells [2] = assay: Induction of cytotoxicity in SUDHL5 cells (Assay 6); format: cell-based; conditions: 5 h, CellTiter-Glo, read-out: Cytotox SUDHL5 IC50 (median)
Summary of the method: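 Cells plated overnight at 37 °C, then exposed to compound for 5 h in a humidified incubator at 37 °C. Viability read by CellTiter-Glo luminescence after 15 min shaking at room temperature; cell-free medium served as control.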

[3] = read-out: Caspase SUDHL5 EC50 (median); caspase-3/7 induction, 3 h
[4] = read-out: Antiproli AMO-1 IC50 median; 72 h, CellTiter-Glo
[5] = caspase-3/7 induction, 3 h; read-out: Caspase SUDHL5 EC50 (median)
[6] = 72 h, CellTiter-Glo; read-out: Antiproli AMO-1 IC50 median
[7] = Homo sapiens, SU-DHL-5, 3 h, caspase-3/7 induction, 3 h; read-out: Caspase SUDHL5 EC50 (median)
[8] = Homo sapiens, AMO1, 72 h, 72 h, CellTiter-Glo; read-out: Antiproli AMO-1 IC50 median

BCL-2, sequence (P10415 1-211): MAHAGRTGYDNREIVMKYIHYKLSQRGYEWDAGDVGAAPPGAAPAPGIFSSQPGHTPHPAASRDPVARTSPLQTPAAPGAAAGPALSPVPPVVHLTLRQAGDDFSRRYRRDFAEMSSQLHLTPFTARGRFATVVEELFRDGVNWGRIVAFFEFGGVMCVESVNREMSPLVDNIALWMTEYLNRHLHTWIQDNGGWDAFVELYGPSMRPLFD

Row | SMILES | IC50 (BCL-2) [nM] | EC50 (SUDHL5 cells [1]; [3]) [nM] | IC50 (AMO-1 cells; [4]) [nM] | IC50 (SUDHL5 cells [2]) [nM] | EC50 (SUDHL5 cells [1]; [5]) [nM] | IC50 (AMO-1 cells; [6]) [nM] | EC50 (SUDHL5 cells [1]; [7]) [nM] | IC50 (AMO-1 cells; [8]) [nM] | IC50 (SUDHL5 cells [2]; Homo sapiens, SU-DHL-5, 5 h) [nM]
1 | CCc1c2c(nn1C)C(CCN1CCC(F)(F)C1)OCCCCn1c(C(=O)O)c(CCCOc3cccc4cc(F)ccc34)c3ccc(Cl)c-2c31 (single isomer, unassigned; enantiomer 2) [Example 57, 4-chloro-15-[2-(3,3-difluoropyrrolidin-1-yl)ethyl]-3-ethyl-7-{3-[(6-fluoronaphthalen-1-yl)oxy]propyl}-2-methyl-2,10,11,12,13,15-hexahydropyrazolo[4′,3′:9,10][1,6]oxazacycloundecino[8,7,6-hi]indole-8-carboxylic Acid N-ethylethanamine Salt (Enantiomer 2)] | > 20000 | 7400 | 4520 | 6800 | – | – | – | – | –
2 | CCc1c2c(nn1C)C(CCN1CCOCC1)OCCCCn1c(C(=O)O)c(CCCOc3cccc4cc(F)ccc34)c3ccc(F)c-2c31 (single isomer, unassigned; enantiomer 2) [Example 51, (−)-3-ethyl-4-fluoro-7-{3-[(6-fluoronaphthalen-1-yl)oxy]propyl}-2-methyl-15-[2-(morpholin-4-yl)ethyl]-2,10,11,12,13,15-hexahydropyrazolo[4′,3′:9,10][1,6]oxazacycloundecino[8,7,6-hi]indole-8-carboxylic Acid (Enantiomer 2)] | > 20000 | – | – | 3400 | 5000 | 10800 | – | – | –
3 | Cc1c2c(nn1C)C(CCN1CCOCC1)OCCCCn1c(C(=O)O)c(CCCOc3cccc4cc(F)ccc34)c3ccc(Cl)c-2c31 (racemic) [Example 16, (rac)-4-chloro-7-{3-[(6-fluoronaphthalen-1-yl)oxy]propyl}-2,3-dimethyl-15-[2-(morpholin-4-yl)ethyl]-2,10,11,12,13,15-hexahydropyrazolo[4′,3′:9,10][1,6]oxazacycloundecino[8,7,6-hi]indole-8-carboxylic Acid] | > 20000 | – | – | – | – | – | 6.8 | 48.3 | 19
4 | CCc1c2c(nn1C)C(CCO)OCCCCn1c(C(=O)O)c(CCCOc3cccc4cc(F)ccc34)c3ccc(Cl)c-2c31 (single isomer, unassigned; enantiomer 1) [Example 45, (+)-4-chloro-3-ethyl-7-{3-[(6-fluoronaphthalen-1-yl)oxy]propyl}-15-(2-hydroxyethyl)-2-methyl-2,10,11,12,13,15-hexahydropyrazolo[4′,3′:9,10][1,6]oxazacycloundecino[8,7,6-hi]indole-8-carboxylic Acid (Enantiomer 1)] | > 20000 | – | – | 76 | 19 | 185 | – | – | –
5 | CCC1OCCCCn2c(C(=O)O)c(CCCOc3cccc4ccccc34)c3ccc(Cl)c(c32)-c2c1nn(C)c2C (single isomer, unassigned; enantiomer 2) [Example 30, (−)-4-chloro-15-ethyl-2,3-dimethyl-7-{3-[(naphthalen-1-yl)oxy]propyl}-2,10,11,12,13,15-hexahydropyrazolo[4′,3′:9,10][1,6]oxazacycloundecino[8,7,6-hi]indole-8-carboxylic Acid—N-ethylethanamine Salt (Enantiomer 2)] | > 20000 | > 33000 | 31600 | 29000 | – | – | – | – | –
6 | CCc1c2c(nn1C)C(CC(C)(C)O)OCCCCn1c(C(=O)O)c(CCCOc3cccc4cc(F)ccc34)c3ccc(Cl)c-2c31 (single isomer, unassigned; enantiomer 1) [Example 53, (+)-4-chloro-3-ethyl-7-{3-[(6-fluoronaphthalen-1-yl)oxy]propyl}-15-(2-hydroxy-2-methylpropyl)-2-methyl-2,10,11,12,13,15-hexahydropyrazolo[4′,3′:9,10][1,6]oxazacycloundecino[8,7,6-hi]indole-8-carboxylic Acid—N-ethylethanamine Salt (Enantiomer 1)] | 17000 | 76 | 185 | 95 | – | – | – | – | –
7 | CCc1c2c(nn1C)C(c1ccccc1)OCCCCn1c(C(=O)O)c(CCCOc3cccc4cc(F)ccc34)c3ccc(Cl)c-2c31 (racemic) [Example 59, (rac)-4-chloro-3-ethyl-7-{3-[(6-fluoronaphthalen-1-yl)oxy]propyl}-2-methyl-(15-rac)-phenyl-2,10,11,12,13,15-hexahydropyrazolo[4′,3′:9,10][1,6]oxazacycloundecino[8,7,6-hi]indole-8-carboxylic Acid] | 13200 | – | – | – | – | – | 430 | 753 | 640
8 | Cc1c2c(nn1C)C(CCN1CCOCC1)OCCCCn1c(C(=O)O)c(CCCOc3cccc4cc(F)ccc34)c3ccc(F)c-2c31 (racemic) [Example 19, (rac)-4-fluoro-7-{3-[(6-fluoronaphthalen-1-yl)oxy]propyl}-2,3-dimethyl-15-[2-(morpholin-4-yl)ethyl]-2,10,11,12,13,15-hexahydropyrazolo[4′,3′:9,10][1,6]oxazacycloundecino[8,7,6-hi]indole-8-carboxylic Acid] | > 20000 | – | – | – | – | – | 73 | 102 | 82
9 | CCc1c2c(nn1C)C(CCN1CCOCC1)OCCCCn1c(C(=O)O)c(CCCOc3cccc4cc(F)ccc34)c3ccc(Cl)c-2c31 (racemic) [Example 22, (rac)-4-chloro-3-ethyl-7-{3-[(6-fluoronaphthalen-1-yl)oxy]propyl}-2-methyl-15-[2-(morpholin-4-yl)ethyl]-2,10,11,12,13,15-hexahydropyrazolo[4′,3′:9,10][1,6]oxazacycloundecino[8,7,6-hi]indole-8-carboxylic Acid] | > 20000 | – | – | – | – | – | 10 | 32.2 | 11
10 | CCc1c2c(nn1C)C(CCO)OCCCCn1c(C(=O)O)c(CCCOc3cccc4cc(F)ccc34)c3ccc(Cl)c-2c31 (single isomer, unassigned; enantiomer 2) [Example 46, (−)-4-chloro-3-ethyl-7-{3-[(6-fluoronaphthalen-1-yl)oxy]propyl}-15-(2-hydroxyethyl)-2-methyl-2,10,11,12,13,15-hexahydropyrazolo[4′,3′:9,10][1,6]oxazacycloundecino[8,7,6-hi]indole-8-carboxylic Acid (Enantiomer 2)] | > 20000 | – | – | 4300 | 4900 | 8650 | – | – | –

Source: patent US11440923B2, “Substituted macrocyclic indole derivatives” (Bayer Aktiengesellschaft, priority 2017, dated 2022)
